# Source: US20230085307A1, “PYRIDAZINONE COMPOUND AND HERBICIDE” (NISSAN CHEMICAL CORPORATION, priority 2019, published 2023)
# Assays:
# [1] = test system: barnyard grass; assay: Test Example 5: herbicidal effect by foliage application, plastic box (Table 20, symbol H); format: in vivo, barnyard grass (Echinochloa crus-galli); settings: foliage application after 14-day growth, evaluated three weeks after application; for herbicidal effect on H: barnyard grass (evaluation grade 0-5): 320 g/ha
# Method in brief: (§1)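 Plants sown in sterilized diluvial soil and grown 14 days in a greenhouse at 25° C to 30° C, then sprayed on the foliage with the compound's emulsion diluted in water to a predetermined herbicide amount. Injury to weeds and crops scored three weeks after application on a visual rating scale.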
# [2] = test system: blackgrass; assay: Test Example 5: herbicidal effect by foliage application, plastic box (Table 20, symbol J); format: in vivo, blackgrass (Alopecurus myosuroides); settings: foliage application after 14-day growth, evaluated three weeks after application; for herbicidal effect on J: blackgrass (evaluation grade 0-5): 320 g/ha
# Method in brief: as §1
# [3] = test system: chickweed; assay: Test Example 5: herbicidal effect by foliage application, plastic box (Table 20, symbol P); format: in vivo, common chickweed (Stellaria media); settings: foliage application after 14-day growth, evaluated three weeks after application; for herbicidal effect on P: chickweed (evaluation grade 0-5): 320 g/ha
# Method in brief: as §1
# [4] = test system: southern crabgrass; assay: Test Example 4: herbicidal effect by soil treatment (Table 19, symbol F); format: in vivo, southern crabgrass (Digitaria ciliaris); settings: amount of applied herbicide 320 g/ha
# Method in brief: (§2)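 Seeds were sown in sterilized diluvial soil and covered with about 1.5 cm of soil. An emulsion formulation diluted with water to a predetermined herbicide amount was sprayed evenly onto the soil surface. Plants grew in a greenhouse at 25° C. to 30° C., and the effect was scored three weeks after application using criteria from an earlier test.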
# [5] = test system: late watergrass; assay: Test Example 2: herbicidal activity, application during weed generation under submerged conditions (Table 17, symbol A); format: in vivo, late watergrass (Echinochloa oryzicola); settings: AAH 320 g/ha; application during weed generation, submerged conditions
# Method in brief: (§3)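 Effect on each weed is rated three weeks post-treatment, using the same scoring criteria as the preceding test. Plants grow from mixed-sown seed in flooded alluvial soil (4 cm water) at 25° C. to 30° C., and are treated at one to two leaves with diluted emulsion dropped onto the water.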
# [6] = test system: velvetleaf; assay: Test Example 4: herbicidal effect by soil treatment (Table 19, symbol M); format: in vivo, velvetleaf (Abutilon theophrasti); settings: amount of applied herbicide 320 g/ha
# Method in brief: as §2
# [7] = test system: redroot pigweed; assay: Test Example 4: herbicidal effect by soil treatment (Table 19, symbol N); format: in vivo, redroot pigweed (Amaranthus retroflexus); settings: amount of applied herbicide 320 g/ha
# Method in brief: as §2
# [8] = test system: barnyard grass; assay: Test Example 3: herbicidal effect by foliage application, Wagner pot (Table 18, symbol H); format: in vivo, barnyard grass (Echinochloa crus-galli); settings: 320 g/ha
# Method in brief: (§4)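 Plants were sown in alluvial soil held under 0.1–0.5 cm standing water and grown 14 days in a greenhouse at 25–30 °C. An emulsifiable formulation, water-diluted to the set dose, was then sprayed onto the foliage, and effects were scored three weeks later using previously defined criteria.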
# [9] = test system: oval-leafed pondweed; assay: Test Example 2: herbicidal activity, application during weed generation under submerged conditions (Table 17, symbol C); format: in vivo, oval-leafed pondweed (Monochoria vaginalis); settings: AAH 320 g/ha; application during weed generation, submerged conditions
# Method in brief: as §3
# [10] = test system: rice flat sedge; assay: Test Example 3: herbicidal effect by foliage application, Wagner pot (Table 18, symbol E); format: in vivo, rice flat sedge (Cyperus iria); settings: 320 g/ha
# Method in brief: as §4
# [11] = test system: persian speedwell; assay: Test Example 4: herbicidal effect by soil treatment (Table 19, symbol R); format: in vivo, Persian speedwell (Veronica persica); settings: amount of applied herbicide 320 g/ha
# Method in brief: as §2
# [12] = test system: oval-leafed pondweed; assay: Test Example 1: herbicidal activity, application before weed generation under submerged conditions (Table 16, symbol C); format: in vivo, oval-leafed pondweed (Monochoria vaginalis); settings: amount of applied herbicide 320 g/ha
# Method in brief: (§5)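 Alluvial soil was flooded to 4 cm depth, weed seeds were sown mixed and 2.5-leaf rice seedlings were transplanted. On sowing day, the compound's emulsion, diluted in water to a set dose, was applied to the water surface. Plants grew at 25–30 °C and were scored 0–5 after three weeks.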
# [13] = test system: blackgrass; assay: Test Example 4: herbicidal effect by soil treatment (Table 19, symbol J); format: in vivo, blackgrass (Alopecurus myosuroides); settings: amount of applied herbicide 320 g/ha
# Method in brief: as §2
# [14] = test system: Japanese bulrush; assay: Test Example 1: herbicidal activity, application before weed generation under submerged conditions (Table 16, symbol B); format: in vivo, Japanese bulrush (Schoenoplectus juncoides); settings: amount of applied herbicide 320 g/ha
# Method in brief: as §5
# [15] = test system: Italian ryegrass; assay: Test Example 5: herbicidal effect by foliage application, plastic box (Table 20, symbol K); format: in vivo, Italian ryegrass (Lolium multiflorum); settings: foliage application after 14-day growth, evaluated three weeks after application; for herbicidal effect on K: Italian ryegrass (evaluation grade 0-5): 320 g/ha
# Method in brief: as §1
# [16] = test system: southern crabgrass; assay: Test Example 5: herbicidal effect by foliage application, plastic box (Table 20, symbol F); format: in vivo, southern crabgrass (Digitaria ciliaris); settings: foliage application after 14-day growth, evaluated three weeks after application; for herbicidal effect on F: southern crabgrass (evaluation grade 0-5): 320 g/ha
# Method in brief: as §1
# [17] = amount of applied herbicide 320 g/ha
Compound,herbicidal effect on H: barnyard grass (evaluation grade 0-5) [1],herbicidal effect on J: blackgrass (evaluation grade 0-5) [2],herbicidal effect on P: chickweed (evaluation grade 0-5) [3],"Herbicidal effect by soil treatment, F: southern crabgrass [4]","herbicidal effect rating, A: late watergrass [5]","Herbicidal effect by soil treatment, M: velvetleaf [6]","Herbicidal effect by soil treatment, N: redroot pigweed [7]",herbicidal effect on barnyard grass (H) [8],"herbicidal effect rating, C: oval-leafed pondweed [9]",herbicidal effect on rice flat sedge (E) [10],"Herbicidal effect by soil treatment, R: persian speedwell [11]","Herbicidal effect, C: oval-leafed pondweed [12]","Herbicidal effect by soil treatment, J: blackgrass [13]","Herbicidal effect, B: Japanese bulrush [14]",herbicidal effect on K: Italian ryegrass (evaluation grade 0-5) [15],herbicidal effect on F: southern crabgrass (evaluation grade 0-5) [16],other results
CCCC(=O)Oc1c(C)nn(C)c(=O)c1-c1c(-c2ccccc2OCC)sc2c(Cl)cccc12 [4-026],5 (Herbicidal rate of 90% or more (almost completely withered)),3 (Herbicidal rate of 40% or more and less than 70%),5 (Herbicidal rate of 90% or more (almost completely withered)),3 (Herbicidal rate of 40% or more and less than 70%),3 (Herbicidal rate of 40% or more and less than 70%),0 (Herbicidal rate of 5% or less (almost no effect)),2 (Herbicidal rate of 20% or more and less than 40%),5 (Herbicidal rate of 90% or more (almost completely withered)),2 (Herbicidal rate of 20% or more and less than 40%),5 (Herbicidal rate of 90% or more (almost completely withered)),2 (Herbicidal rate of 20% or more and less than 40%),4 (Herbicidal rate of 70% or more and less than 90%),0 (Herbicidal rate of 5% or less (almost no effect)),3 (Herbicidal rate of 40% or more and less than 70%),1 (Herbicidal rate of 5% or more and less than 20%),3 (Herbicidal rate of 40% or more and less than 70%),
CCCC(=O)Oc1c(C)nn(C)c(=O)c1-c1c(-c2ccc(C#N)cc2)sc2c(Cl)cccc12 [4-032],0 (Herbicidal rate of 5% or less (almost no effect)),0 (Herbicidal rate of 5% or less (almost no effect)),5 (Herbicidal rate of 90% or more (almost completely withered)),0 (Herbicidal rate of 5% or less (almost no effect)),0 (Herbicidal rate of 5% or less (almost no effect)),0 (Herbicidal rate of 5% or less (almost no effect)),3 (Herbicidal rate of 40% or more and less than 70%),4 (Herbicidal rate of 70% or more and less than 90%),0 (Herbicidal rate of 5% or less (almost no effect)),5 (Herbicidal rate of 90% or more (almost completely withered)),3 (Herbicidal rate of 40% or more and less than 70%),0 (Herbicidal rate of 5% or less (almost no effect)),0 (Herbicidal rate of 5% or less (almost no effect)),2 (Herbicidal rate of 20% or more and less than 40%),0 (Herbicidal rate of 5% or less (almost no effect)),0 (Herbicidal rate of 5% or less (almost no effect)),
CCCC(=O)Oc1c(C)nn(C)c(=O)c1-c1c(-c2ccc(F)cc2OCC)sc2c(Cl)cccc12 [4-036],5 (Herbicidal rate of 90% or more (almost completely withered)),3 (Herbicidal rate of 40% or more and less than 70%),5 (Herbicidal rate of 90% or more (almost completely withered)),4 (Herbicidal rate of 70% or more and less than 90%),3 (Herbicidal rate of 40% or more and less than 70%),2 (Herbicidal rate of 20% or more and less than 40%),4 (Herbicidal rate of 70% or more and less than 90%),5 (Herbicidal rate of 90% or more (almost completely withered)),0 (Herbicidal rate of 5% or less (almost no effect)),5 (Herbicidal rate of 90% or more (almost completely withered)),2 (Herbicidal rate of 20% or more and less than 40%),4 (Herbicidal rate of 70% or more and less than 90%),0 (Herbicidal rate of 5% or less (almost no effect)),3 (Herbicidal rate of 40% or more and less than 70%),4 (Herbicidal rate of 70% or more and less than 90%),4 (Herbicidal rate of 70% or more and less than 90%),
CCCC(=O)Oc1c(C)nn(C)c(=O)c1-c1c(-c2ccc(C(F)(F)F)cc2)sc2c(F)cccc12 [4-045],2 (Herbicidal rate of 20% or more and less than 40%),0 (Herbicidal rate of 5% or less (almost no effect)),5 (Herbicidal rate of 90% or more (almost completely withered)),0 (Herbicidal rate of 5% or less (almost no effect)),3 (Herbicidal rate of 40% or more and less than 70%),0 (Herbicidal rate of 5% or less (almost no effect)),4 (Herbicidal rate of 70% or more and less than 90%),5 (Herbicidal rate of 90% or more (almost completely withered)),0 (Herbicidal rate of 5% or less (almost no effect)),5 (Herbicidal rate of 90% or more (almost completely withered)),3 (Herbicidal rate of 40% or more and less than 70%),0 (Herbicidal rate of 5% or less (almost no effect)),0 (Herbicidal rate of 5% or less (almost no effect)),2 (Herbicidal rate of 20% or more and less than 40%),5 (Herbicidal rate of 90% or more (almost completely withered)),0 (Herbicidal rate of 5% or less (almost no effect)),
CCCC(=O)Oc1c(C)nn(C)c(=O)c1-c1c(-c2ccc(C#N)cc2)sc2cc(F)c(F)cc12 [5-026],,,,,2 (Herbicidal rate of 20% or more and less than 40%),,,3 (Herbicidal rate of 40% or more and less than 70%),0 (Herbicidal rate of 5% or less (almost no effect)),5 (Herbicidal rate of 90% or more (almost completely withered)),,0 (Herbicidal rate of 5% or less (almost no effect)),,0 (Herbicidal rate of 5% or less (almost no effect)),,,"Herbicidal effect by foliage application, H: barnyard grass [1, 17]: 0 (Herbicidal rate of 5% or less (almost no effect)); Herbicidal effect by foliage application, J: blackgrass [2, 17]: 0 (Herbicidal rate of 5% or less (almost no effect)); Herbicidal effect by foliage application, P: chickweed [3, 17]: 5 (Herbicidal rate of 90% or more (almost completely withered)); F: southern crabgrass, herbicidal effect grade [4]: 0 (Herbicidal rate of 5% or less (almost no effect)); M: velvetleaf, herbicidal effect grade [6]: 0 (Herbicidal rate of 5% or less (almost no effect)); N: redroot pigweed, herbicidal effect grade [7]: 4 (Herbicidal rate of 70% or more and less than 90%); R: persian speedwell, herbicidal effect grade [11]: 4 (Herbicidal rate of 70% or more and less than 90%); J: blackgrass, herbicidal effect grade [13]: 0 (Herbicidal rate of 5% or less (almost no effect)); Herbicidal effect by foliage application, K: Italian ryegrass [15, 17]: 0 (Herbicidal rate of 5% or less (almost no effect)); Herbicidal effect by foliage application, F: southern crabgrass [16, 17]: 0 (Herbicidal rate of 5% or less (almost no effect))"
